Measured values from patent US20220040129A1, “TREATMENT OF HYPERAMMONEMIA IN PATIENTS WITH RENAL INSUFFICIENCY” (RECORDATI S.p.A., priority 2019, published 2022).
Where two headings read alike, the source gives them in different places.

Tests used:
CYP1A2 = biological target: T1, CYP1A2 (Homo sapiens, UniProt P05177); type: in vitro ADME
T1 sequence (P05177 1-516): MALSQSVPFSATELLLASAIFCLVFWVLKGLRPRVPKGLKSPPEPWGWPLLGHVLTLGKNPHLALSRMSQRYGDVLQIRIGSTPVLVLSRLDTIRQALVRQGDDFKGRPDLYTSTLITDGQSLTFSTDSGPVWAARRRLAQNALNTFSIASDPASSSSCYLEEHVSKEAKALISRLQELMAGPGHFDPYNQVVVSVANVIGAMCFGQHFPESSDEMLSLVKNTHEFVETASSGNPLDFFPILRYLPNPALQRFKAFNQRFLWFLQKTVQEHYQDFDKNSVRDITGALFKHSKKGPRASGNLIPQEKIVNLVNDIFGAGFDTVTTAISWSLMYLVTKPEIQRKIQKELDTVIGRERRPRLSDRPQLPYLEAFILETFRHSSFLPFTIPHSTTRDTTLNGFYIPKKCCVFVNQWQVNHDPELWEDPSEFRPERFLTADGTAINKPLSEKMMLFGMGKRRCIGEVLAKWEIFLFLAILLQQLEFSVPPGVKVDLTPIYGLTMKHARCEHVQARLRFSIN

clinical = conditions: human, in vivo; for CL renal / clearance / half-life / Vd: both sexes; for clearance: Cl
Procedure: The levels of CGA in plasma and urine were analysed using a fully validated method, which included LC-MS/MS analysis. The PK data were analysed based on a non-compartmental model. A model-based approach was implemented for the characterization of the PK properties of the IV formulation in order to estimate the level of PK exposure after different doses administered with different duration of infusion. The model outcomes provided rationales for supporting decision-making through the dose escalation process. The PK parameters were determined using SAS (version 9.3), and modelling of the PK data was performed using NONMEM (version 7.3, ICON Solutions). PART A: Mono-Centre, Randomized, Successive Groups, Double-Blind, Placebo-Controlled Study in Healthy Male and Female Subjects
Part C was a randomized, double-blind, placebo-controlled study. It was conducted in five successive cohorts of 8 healthy male or female subjects each, for a total of 40 subjects. For each of the five cohorts, 6 subjects were administered CGA and 2 subjects received placebo. The study medication was administered IV, first as a loading dose and then as a maintenance dose. The dosage regimen was determined based both on the results of Part A and PK modelling.
For the first three cohorts, three ascending doses of the study medication were administered IV as loading doses of 2.0, 3.0, and 3.6 mg/kg for 20 minutes, respectively, followed by maintenance doses of 2.5, 3.75 and 4.5 mg/kg/h given by IV infusion over a period of […]. For the fourth cohort, a dose of the IV formulation of CGA determined as being well tolerated was administered as a loading dose by IV infusion over 20 minutes, followed by a maintenance dose administered by IV infusion over a period of up to 12 hours. The 5th cohort received the study medication at the same dose and under the same conditions as the 4th cohort, except for the period during which the maintenance dose was administered, which lasted up to 24 hours.
Blood sample for PK measurements were collected at 18 timepoints for the first three cohorts, and 20 timepoints for the 4th and 5th cohorts. These included a sample preceding the administration of the study medication, and the period from 20 minutes to 48 hours following the initiation of the IV infusion. Urine was also collected for PK measurements at the following intervals relative to the time of initiation of the IV infusion: 0-6, 6-12, 12-24, 24-36, and 36-48 hours. […]

CYP2D6 = CYP2D6 (Homo sapiens, UniProt P10635); experiment: In vitro CYP inhibition; type: in vitro ADME
Chain of CYP2D6 (P10635 whole entry): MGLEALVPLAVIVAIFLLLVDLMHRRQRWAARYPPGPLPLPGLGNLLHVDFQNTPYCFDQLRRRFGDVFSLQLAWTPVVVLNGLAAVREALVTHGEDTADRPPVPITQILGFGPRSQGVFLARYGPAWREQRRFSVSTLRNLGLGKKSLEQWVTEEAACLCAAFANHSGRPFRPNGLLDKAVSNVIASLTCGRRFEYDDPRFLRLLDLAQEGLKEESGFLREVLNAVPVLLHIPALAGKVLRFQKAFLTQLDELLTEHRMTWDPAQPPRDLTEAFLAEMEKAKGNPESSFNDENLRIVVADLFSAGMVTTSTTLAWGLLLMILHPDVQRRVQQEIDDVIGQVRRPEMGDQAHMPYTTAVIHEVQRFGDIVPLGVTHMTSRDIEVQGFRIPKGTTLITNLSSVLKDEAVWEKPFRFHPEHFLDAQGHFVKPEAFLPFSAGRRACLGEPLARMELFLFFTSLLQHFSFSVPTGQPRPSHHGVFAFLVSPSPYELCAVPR

plasma NH3 = experiment: Rate of reduction of plasma NH3 over 36 hours, population with baseline NH3 over 100/150 micromol/L; type: in vivo, human
Text: The two populations analyzed included: 1) Population with baseline plasma NH3 levels over 100 micromol/L in non-neonate or 150 micromol/L in neonate; 2) Propensity Matching Score (PMS) Population. […] These rates of decrease were confirmed to be statistically significant.

[1] = Pharmacokinetics in healthy subjects after oral administration (radiolabeled and non-radiolabeled); type: in vivo, human; conditions: for half-life / CL renal: in vivo; for half-life / CL renal / Tmax: po
[2] = Population PK model (two-compartment, zero order absorption); set-up: species or system human; conditions: value estimated in HVs, fixed in the model
Text: A population PK model was developed using PK data collected from the PK study mentioned above. The data was collected after variable long treatment periods lasting more than a year in some cases, with different doses, and with different dosage regimens in both pediatric and adult volunteers (N=16).
The sparse drug concentrations (24 PK samples) were fitted using a two-compartment model with zero order absorption rate, which was also used to describe the PK time course in the PK study.
The final models for Clearance and Volume were:
Wherein CL is the value of the clearance in a patient, CLt is the typical value of the clearance in adult subjects, WT is the body weight, TM50 is the maturation half time, g is the Hill coefficient and Vt is the typical value of the volume in adult subjects.

[3] = single radiolabeled oral dose of 100 mg/kg

Structure (SMILES): NC(=O)N[C@@H](CCC(=O)O)C(=O)O [carglumic acid, N-carbamoyl-L-glutamic acid]
- Inhibition of CYP1A2 (CYP1A2): not an inhibitor
- CL renal (clinical; iv, Average renal clearance): 4.83 mL/min/kg
- clearance (clinical; iv, Mean): 5.33 mL/min/kg
- clearance (clinical; iv, Median): 5.27 mL/min/kg
- half-life (clinical; iv, Mean): 1710 min
- half-life (clinical; iv, Median): 1710 min
- CL renal (clinical; iv, Renal Clearance, Mean): 4.83 mL/min/kg
- CL renal (clinical; iv, Renal Clearance, Median): 4.98 mL/min/kg
- Vd (clinical; iv, Mean): 13 L/kg
- Vd (clinical; iv, Median): 12.8 L/kg
- Ae (% of the dose excreted), Max (clinical; both, iv): 111.412%
- Ae (% of the dose excreted), Mean (clinical; both, iv): 84.478%
- Ae (% of the dose excreted), Median (clinical; both, iv): 86.924%
- Ae (% of the dose excreted), Min (clinical; both, iv): 38.756%
- Cl, Max (clinical; both, iv): 0.438 L/h/kg
- Cl, Min (clinical; both, iv): 0.192 L/h/kg
- Half-life, Max (clinical; both, iv): 39.987 h
- Half-life, Min (clinical; both, iv): 13.598 h
- Renal Clearance, Max (clinical; both, iv): 0.510 L/h/kg
- Renal Clearance, Min (clinical; both, iv): 0.116 L/h/kg
- Vd, Max (clinical; both, iv): 19.689 L/kg
- Vd, Min (clinical; both, iv): 3.897 L/kg
- Dose dependence of AUCinf, AUClast and Cmax (clinical): increased linearly
- Inhibition of CYP2D6 (CYP2D6): not an inhibitor
- Median time to achieve 50% reduction of plasma NH3 (plasma NH3; baseline plasma NH3 over 100 micromol/L in non-neonate or 150 micromol/L in neonate): 18 hours post dose
- Speed of plasma NH3 reduction versus NH3 Scav alone group (plasma NH3; first 36 hours after treatment initiation, the two populations analyzed): statistically significantly faster
- 24-hour urinary excretion ([1]; after oral administration): 4.5 % of the dose
- Apparent total clearance, median ([1]; after oral administration): 5.7 L/min
- Apparent volume of distribution, median ([1]; after oral administration): 2657 L
- Apparent volume of distribution, median per kg ([1]; after oral administration): 35.9 L/kg
- Apparent volume of distribution, range ([1]; after oral administration): 1616 to 5797 L
- half-life ([1]; human, after oral administration, read-out: Initial half-life (converted)): ~336 min
- CL renal ([1]; human, after oral administration, read-out: Renal clearance, median): 290 mL/min
- CL renal ([1]; human, after oral administration, read-out: Renal clearance, range): 204 to 445 mL/min
- half-life ([1]; human, after oral administration, read-out: Terminal half-life (converted)): ~1320 min
- bioavailability ([1]; human, plasma, 100 mg/kg, oral, read-out: Absolute bioavailability): 9.9%
- Tmax ([1]; human, plasma, read-out: Tmax, median): 3 h
- Tmax ([1]; human, plasma, read-out: Tmax, range): 2 to 4 h
- Dose excreted unchanged in the urine [1, 3]: 9 % of the dose
- Dose recovered unchanged in the feces [1, 3]: up to 60 % of the dose
- CLt, typical value of the clearance in adult subjects [2]: 0.178
